Assay results from patent US20110287933A1, “Herbicidal composition for tolerant or resistant oilseed rape crops” (BAYER CROPSCIENCE AG, priority 2010, published 2011).

Assays:
Type in all cases: in vivo
[1] = system: oilseed rape (GA-tolerant); test: Greenhouse trial, crop plant compatibility in oilseed rape (GA-tolerant); settings: 2-4 oilseed rape-leaf stage
Procedure: The trials were carried out under greenhouse conditions (test pots, diameter 8 cm, spray application using 300 l of water/hectare, 2 repetitions, 6 to 8 plants per pot).
Scoring was by visual comparison of the treated with the untreated controls (0-100% scale, 14-19 days after the application) (see details in the respective tables).

[2] = system: Lolium multiflorum; test: Greenhouse trial, post-emergence herbicidal efficacy against Lolium multiflorum; settings: scoring 14 days after application, g of ai/ha: A1.1 100, B1.1 5, C10 5, C11 15, combinations at the same rates
Procedure: (§1) The trials were carried out under greenhouse conditions (test pots, diameter 8 cm, spray application using 300 l of water/hectare, 2 repetitions, 6 to 8 plants per pot). Application was by post-emergence treatment; the species of the harmful plants and their stage of growth at the time of treatment are, indicated in the individual results tables. The application rates of the herbicidally active compounds used on their own or in combinations are likewise listed in the individual results tables.
(§2) Scoring was by visual comparison of the treated with the untreated controls (0-100% scale, 14-19 days after the application) (see details in the respective tables). The results (means for all plants per pot and means of two repetitions per pot and treatment) are lised in Tables 4 to 6 below.
(§3) 4.2 Abbreviations Used in Tables 4 to 6 • application rate g/ai=application rate in grams of active compound per hectare • ai=active ingredient (of an active compound content of 100%) • GA=glufosinate-ammonium • GA-tolerant=oilseed rape which is tolerant to GA (GMO) • E^C=expected value according to Colby, (E^C=A+B−A×B/100)=for ternary combinations: (A+B)+C−(A+B)×C/100 • E^A=expected value according to the addition method (E^A=A+B) • A=difference (%) between observed value−%−vs. expected value (%) (observed value minus expected value) • examination:—observed values for (A), (B) and (A)+(B) in % • scoring:—observed value (%) greater >than E^C/E^A: ->synergism (+Δ) • observed value (%) equal to =E^c/E^A->additive effect (+−0Δ) • observed value (%) smaller <than E^A/E^c->antagonism (−Δ)

[3] = system: Matricaria chamomilla; test: Greenhouse trial, post-emergence herbicidal efficacy against Matricaria chamomilla; settings: scoring 19 days after application, g of ai/ha: A1.1 100, B1.1 5, C12 50, combinations at the same rates
Procedure: as §1, §2, §3

[4] = system: Viola arvensis; test: Greenhouse trial, post-emergence herbicidal efficacy against Viola arvensis; settings: scoring 14 days after application, g of ai/ha: A1.1 100, B1.1 5, C1 25, C2 100, C3 12.5, C4 2.5, C5 50, C6 125, C7 250, C8 250, C9 5, combinations at the same rates
Procedure: as §1
Scoring was by visual comparison of the treated with the untreated controls (0-100% scale, 14-19 days after the application) (see details in the respective tables). The results (means for all plants per pot and means of two repetitions per pot and treatment) are lised in Tables 4 to 6 below. […]

[5] = Table 4, post-emergence, scoring 14 days after application, g of ai/ha: A1.1 100, B1.1 5, C1 25, C2 100, C3 12.5, C4 2.5, C5 50, C6 125, C7 250, C8 250, C9 5, combinations at the same rates, (75)* = selective only in IMI × GA tolerant crop plants
[6] = Table 5, post-emergence, scoring 14 days after application, g of ai/ha: A1.1 100, B1.1 5, C10 5, C11 15, combinations at the same rates
[7] = Table 6, post-emergence, scoring 19 days after application, g of ai/ha: A1.1 100, B1.1 5, C12 50, combinations at the same rates

SMILES	Damage to crop plants (%) oilseed rape (GA-tolerant) (≦15-20% acceptable) [1, 5]	Herbicidal efficacy % Lolium multiflorum [2] [%]	also measured
CP(=O)(O)CCC(N)C(=O)O (centres unmarked) [A1.1, glufosinate-ammonium]	10%	20	Damage to crop plants (%) oilseed rape (GA-tolerant) (≦15-20% acceptable) [1, 6]: 10%; Damage to crop plants (%) oilseed rape (GA-tolerant) (≦15-20% acceptable) [1, 7]: 10%; Herbicidal efficacy % Matricaria chamomilla [3]: 95%
COC(=O)c1nc(-c2ccc(Cl)c(OC)c2F)cc(N)c1Cl [B1.1, methyl 4-amino-3-chloro-6-(4-chloro-2-fluoro-3-methoxyphenyl)pyridine-2-carboxylate]		0	Herbicidal efficacy % Matricaria chamomilla [3]: 40%
O=C(O)c1nc(Cl)ccc1Cl [C1, clopyralid]	0%		
CCOC(=O)[C@@H](C)Oc1ccc(Oc2nc3ccc(Cl)cc3o2)cc1 [C3, fenoxaprop-P-ethyl]	15%		Herbicidal efficacy % Viola arvensis [4]: 0%
C[C@@H](Oc1ccc(Oc2ncc(C(F)(F)F)cc2Cl)cc1)C(=O)O [C4, haloxyfop-p]			Herbicidal efficacy % Viola arvensis [4]: 0%
Cc1cccc(C)c1N(Cn1cccn1)C(=O)CCl [C5, metazachlor]	0%		
CCCCCCCCSC(=O)Oc1cc(Cl)nnc1-c1ccccc1 [C7, pyridate]	0%		
CCCN(CCC)c1c([N+](=O)[O-])cc(C(F)(F)F)cc1[N+](=O)[O-] [C8, trifluralin]	0%		
COCc1cnc(C2=NC(C)(C(C)C)C(=O)N2)c(C(=O)O)c1 (centres unmarked) [C9, imazamox]	(75)* %		
CCSC(C)CC1CC(=O)C(/C(CC)=N/OC/C=C/Cl)=C(O)C1 (centres unmarked) [C10, clethodim]		50	Damage to crop plants (%) oilseed rape (GA-tolerant) (≦15-20% acceptable) [1, 6]: 0%
CCCC(=NOCC)C1=C(O)CC(C2CCCSC2)CC1=O (centres unmarked) [C11, cycloxydim]		70	
CC1(C)CON(Cc2ccccc2Cl)C1=O [C12, Clomazone]			Damage to crop plants (%) oilseed rape (GA-tolerant) (≦15-20% acceptable) [1, 7]: 15%; Herbicidal efficacy % Matricaria chamomilla [3]: 0%
